Columns and labels:
[1] = test system: IIIB/CEM4; format: cell-based, HIV; settings: virus IIIB/CEM4
Excerpt: (§1) Illustrated in this example is the unexpected result of antiviral potency using the conjugates according to the present invention. […] In determining antiviral activity (e.g., one measure being the ability to inhibit transmission of HIV to a target cell) of the conjugates according to the present invention, used was an in vitro assay which has been shown, by data generated using synthetic peptides derived from either of the HR regions of HIV gp41, to be predictive of antiviral activity observed in vivo.
(§2) The infectivity assays score for reduction of infectious virus titer employing the indicator cell lines MAGI or the CCR5 expressing derivative cMAGI. Both cell lines exploit the ability of HIV-1 that to transactivate the expression of a β-galactosidase reporter gene driven by the HIV-LTR. The β-gal reporter has been modified to localize in the nucleus and can be detected with the X-gal substrate as intense nuclear staining within a few days of infection. The number of stained nuclei can thus be interpreted as equal to the number of infectious virions in the challenge inoculum if there is only one round of infection prior to staining. Infected cells are enumerated using a CCD-imager and both primary and laboratory adapted isolates show a linear relationship between virus input and the number of infected cells visualized by the imager. […] Peptides tested for antiviral activity were diluted into various concentrations, and tested in duplicate or triplicate against an HIV inoculum adjusted to yield approximately 1500-2000 infected cells/well of a 48 well microtiter plate. The peptide (in the respective dilution) was added to the CMAGI or MAGI cells, followed by the virus inocula; and 24 hours later, an inhibitor of infection and cell-cell fusion (e.g., T20) was added to prevent secondary rounds of HIV infection and cell-cell virus spread. The cells were cultured for 2 more days, and then fixed and stained with the X-gal substrate to detect HIV-infected cells. The number of infected cells for each control and peptide dilution was determined with the CCD-imager, and then the IC50 and IC90 were calculated (expressed in μg/ml).
(§3) With reference to Table 4, IC50 and IC90 are expressed in μg/ml.

[2] = test system: SIM/CEM4; format: cell-based, HIV; settings: virus SIM/CEM4
Excerpt: as §1, §2, §3

[3] = test system: 3′GIV/CEM4; format: cell-based, HIV; settings: virus 3′GIV/CEM4
Excerpt: as §1, §2, §3

[4] = test system: HIV-1 T20S; format: cell-based; settings: T20-sensitive clinical isolate, Table 2
Excerpt: as §1, §2
In this first example of antiviral potency, two clinical isolates of HIV were obtained from the same HIV-infected individual. A first isolate, hereby designated “HIV-1 T20S” for ease of description, was sensitive to the antiviral effect of T20 (SEQ ID NO:4) both in vitro and in vivo. […] The results, with the IC50 expressed in ng/ml, are illustrated in Table 2.
Using the methods taught in Example 1 herein, additional conjugates were produced by varying the polymer, the terminus of the synthetic peptide which is operably bound to polymer, and the reactive functionality used for operably binding synthetic peptide to polymer. Two molecules of synthetic peptide (e.g. SEQ ID NO:4) were operably bound to polymer. Such conjugates were then tested for antiviral activity against HIV isolates IIIB, and HIV-1 T20S & HIV-1 T20R (see Table 2 for HIV resistant strains), with the antiviral activity (IC50) expressed in μg/ml. The results for the various conjugates (Table 5, A-Q), terminus of synthetic peptide used for operably binding polymer (Table 5, C-terminus denoted as “C”, N-terminus denoted as “N”) or if an internal lysine was used (Table 5, “Lys 18”, signifying lysine as amino acid residue 18 in the amino acid sequence of the synthetic peptide), antiviral activity (IC50) against HIV-1 strain IIIB (Table 5, “IIIB”), antiviral activity (IC50) against HIV-1 T20S (Table 5, “T20S”) and antiviral activity (IC50) against HIV-1 T20R (Table 5, “T20R”), are illustrated in Table 5.

[5] = test system: HIV-1 T20R-B; format: cell-based; settings: virus HIV-1 T20R-B
Excerpt: (§4) The infectivity assays score for reduction of infectious virus titer employing the indicator cell lines MAGI or the CCR5 expressing derivative cMAGI. Both cell lines exploit the ability of HIV-1 that to transactivate the expression of a β-galactosidase reporter gene driven by the HIV-LTR. The β-gal reporter has been modified to localize in the nucleus and can be detected with the X-gal substrate as intense nuclear staining within a few days of infection. The number of stained nuclei can thus be interpreted as equal to the number of infectious virions in the challenge inoculum if there is only one round of infection prior to staining. […] The peptide (in the respective dilution) was added to the CMAGI or MAGI cells, followed by the virus inocula; and 24 hours later, an inhibitor of infection and cell-cell fusion (e.g., T20) was added to prevent secondary rounds of HIV infection and cell-cell virus spread. The cells were cultured for 2 more days, and then fixed and stained with the X-gal substrate to detect HIV-infected cells. The number of infected cells for each control and peptide dilution was determined with the CCD-imager, and then the IC50 and IC90 were calculated (expressed in μg/ml).

[6] = test system: HIV; settings: typical range in words; cited from earlier work
[7] = test system: HIV-1 T20S-B; format: cell-based; settings: virus HIV-1 T20S-B
Excerpt: as §1, §2
(§5) IC50 and IC90 are expressed in μg/ml.

[8] = test system: HIV-1 T20S-A; format: cell-based; settings: virus HIV-1 T20S-A
Excerpt: as §1, §2, §5

[9] = test system: HIV-1 T20R-A; format: cell-based; settings: virus HIV-1 T20R-A
Excerpt: as §1, §2, §5

[10] = test system: HIV-1 T20S-D; format: cell-based; settings: virus HIV-1 T20S-D
Excerpt: as §1, §2, §5

[11] = test system: HIV-1 T20S-C; format: cell-based; settings: virus HIV-1 T20S-C
Excerpt: as §1, §2, §5

[12] = test system: HIV-1 T20R-C; format: cell-based; settings: virus HIV-1 T20R-C
Excerpt: as §1, §2, §5

[13] = test system: HIV-1 T20R-D; format: cell-based; settings: virus HIV-1 T20R-D
Excerpt: as §1, §2, §5

[14] = test system: HIV-1 T20R; format: cell-based; settings: T20-resistant clinical isolate, Table 2
Excerpt: as §4
In this first example of antiviral potency, two clinical isolates of HIV were obtained from the same HIV-infected individual.
Using the methods taught in Example 1 herein, additional conjugates were produced by varying the polymer, the terminus of the synthetic peptide which is operably bound to polymer, and the reactive functionality used for operably binding synthetic peptide to polymer. Two molecules of synthetic peptide (e.g. SEQ ID NO:4) were operably bound to polymer.

[15] = Bioavailability (circulating half-life) in cannulated mice, plasma fluorescence HPLC; format: in vivo; settings: mouse, 10 mg/kg
Protocol: It is important to note that standard animal model for determining bioavailability has been correlated with the bioavailability of synthetic peptide in vivo in humans (as described in more detail in U.S. Pat. No. 6,258,782). […] A sample of blood was removed at predetermined time intervals (0, 15, 30 min and 1, 2, 4, 6, and 8 hours) and added to collection tubes containing anticoagulant (EDTA). Plasma was harvested from each of the collection tubes, and then subjected to analysis by fluorescence high pressure liquid chromatography (HPLC). In addition to sample dilutions, serial dilutions of dosing solution were performed in buffer as well as in plasma, and used to generate a standard curve relating peak area to known concentration of peptide. This curve was then used to calculate concentration of peptide in plasma taking into account all dilutions performed and quantity injected onto column.

## enfuvirtide
[1]
  IC50: 0.007 µg/mL
  IC90: 0.052 µg/mL
[2]
  IC50: 0.584 µg/mL
  IC90: 3.398 µg/mL
[3]
  IC50: 0.008 µg/mL
  IC90: 0.050 µg/mL
[4]
  HIV-1 T20S: IC50: 0.01 µg/mL
[5]
  IC50: 1.898 µg/mL
  IC90: 7.179 µg/mL
[6]
  50% effective concentration values (EC50), blocked infection of T cells: in the ng/ml range
[7]
  IC50: 0.029 µg/mL
  IC90: 0.117 µg/mL
[8]
  IC50: 0.006 µg/mL
  IC90: 0.078 µg/mL
[9]
  IC50: >5 µg/mL
  IC90: >5 µg/mL
[10]
  IC50: 0.018 µg/mL
  IC90: 0.208 µg/mL
[11]
  IC50: 0.006 µg/mL
  IC90: 0.073 µg/mL
[12]
  IC50: 1.544 µg/mL
  IC90: 6.285 µg/mL
[13]
  IC50: 2.039 µg/mL
  IC90: >5 µg/mL
[14]
  HIV-1 T20R: IC50: 1,211 ng/ml
[15]; cannulated mice, intravenous, read-out: t½ (converted)
  half-life: 1.6 h
[15]; iv
  AUC: 158 µg·h/mL
